Measurements published in patent US5863716A, “Treatment of plasmodium” (The Leland Stanford Junior University Board of Trustees, priority 1997, dated 1999).

Key:
sphingomyelin synthase [1] = assay: Inhibition of plasmodial sphingomyelin biosynthesis in intact infected erythrocytes (C6-NBD-ceramide to C6-NBD-sphingomyelin, TLC); type: cell-based, Plasmodium falciparum
Protocol: (§1) 1×10^8 infected cells 24 h after invasion were washed serum-free in RPMI 1640 and preincubated for thirty min at 37° C. in 1 ml of RPMI 1640 containing 0-5 μM or 0-500 μM of PPMP. (C6-NBD-ceramide (N-[7-(4-nitrobenzo-2-oxa-1,3-diazide)]-6-aminocaproyl-D-erythro-sphingosine) was added to each sample at a final concentration of 5 μM, the samples further incubated for 30 min at 37° C. and cellular lipids extracted. C6-NBD-sphingomyelin was resolved by TLC and quantitated by fluorescence spectrophotometry as described previously. Bligh, E. G. and Dyer, W. Y. (1959) A rapid method for total lipid extraction and purification., Can. J. Biochem. Physiol. 37: 911-917. Haldar, K., Uyetake, L., Ahori, N., Elmendorf, H. G. and Lu, W-1. (1991) The accumulation and metabolism of a fluorescent ceramide derivative in Plasmodium falciparum--infected erythrocytes., Mo. Biochem. Parasitol. 49: 143-156. Elmendorf, H. G. and Haldar, K. (1994) Plasmodium falciparum exports the Golgi marker sphingomyelin synthase into a tubovesicular network in the cytoplasm of mature erythrocytes., J. Cell Biol. 124: 449-462. Each value obtained represented the mean of triplicate determinations from five experiments. The arrow bars indicate the standard deviations. The results are depicted in FIG. 1.
(§2) P. falciparum strain FCB was used for all experiments and cultured in vitro in according to a modification of the method of Trager and Jensen left off. Trager, W. and Jensen, J. B. (1976) Human malaria in continuous culture., Science (Wash. D.C.) 193: 673-675 Haldar, K., Ferguson, M. A. J. and Cross, G. A. M. (1985) Acylation of a Plasmodium falciparum merozoite surface antigen via sn-1, 2-diacyl glycerol. J. Biol. Chem. 260; 4969-4974. The culture medium contained RPMI 1640 supplemented with 25 Mm hepes, Ph 7.4/11 […] glucose/92 μM hypoxanthine/0.18% sodium bicarbonate/25 μM gentamicin and 10% AB^+ human sera. The parasites were grown in A^+ erythrocytes at 2.5-5% hematocrit. Parasite cultures were synchronized by separation of the early and late stages on a Percoll gradient. The subsequent reincubation of these stages in culture were used to obtain cells 12-24 h in the life cycle. Inhibition of sphingomyelin biosynthetic activity using 5 μM of the various compounds was carried out as described in Example 1. 5 μM of the various compounds were added to 0-12 h rings in the culture medium and cells were examined by Giemsa staining after 24 h.

sphingomyelin synthase [2] = assay: Inhibition of sphingomyelin biosynthesis in hypotonically lysed infected erythrocytes and fractions; type: biochemical, Plasmodium falciparum
Protocol: as §1
Cells were washed serum-free in PBS and intact cells were incubated in PBS. Cells were lysed in 10 volumes of hypotonic buffer. Pellets and supernatants were separated by centrifugation at 10^4 ×G for 10 min at 4° C. Inhibition of sphingomyelin biosynthetic activity was carried out as described in Example 1. Glutamate dehydrogenase, a parasite cytosolic activity, was assayed using 10 μM alpha-ketoglutarate and 0.1 μM NADPH for 1 h at 37° C. by measuring the absorption at 340 nm in a spectrophotometer. The following table indicates the results

P. falciparum strain FCB = assay: Inhibition of intraerythrocytic growth in culture, Giemsa staining after 24 h; type: cell-based, Plasmodium falciparum; details: Plasmodium falciparum; 5 μM added to 0-12 h rings; Giemsa staining after 24 h; read-out: [%] inhibition of growth
From the text: as §2

DNA synthesis = assay: Effect on DNA synthesis; type: cell-based
[3] = test system: tubovesicular membrane reticulum (TVM) of P. falciparum-infected erythrocytes; assay: Tubovesicular membrane (TVM) morphology, C5-DMB-ceramide labeling, confocal microscopy; type: cell-based; details: 5 μM
Protocol: Serial sections through P. falciparum-infected erythrocytes labeled with C5 -DMB-ceramide (4,4-difluoro-5,7-dimethyl-4-bora-3a,4a-diaza-5-indacene-3-pentanoyl)-sphingosine) 12 h (rings) and 36 h (trophozoites) after invasion.
Schizont-stage parasites isolated over Percoll were allowed to invade in the presence of RPMI 1640 containing 10% human serum or in the presence of RPMI 1640 containing 10% human serum and 5 μM PPMP. 1×10^8 infected erythrocytes of the appropriate stage were incubated in 1 ml of RPMI 1640 supplemented with 2mg/ml defatted BSA and 20 μM C5 -DMB-ceramide. Cells were washed and fixed as described in Example 5. Sequential micrographs were taken on a custom made laser confocal microscope at 400 nm intervals along the Z axis. Raw data were processed as described previously.

Toxicity in mice = details: mouse, in vivo; over 16 days; preliminary studies; read-out: dose with no significant toxicity
Protocol: (§3) Preparation of test compounds, toxicity and pharmacokinetics in mice: PPMP and its derivatives are made up as a stock solution in ethanol, diluted into sterile saline, warmed up to 37° C. and delivered once or several times a day, either intraperitoneally (i.p.) or intravenously (i.v.). The animals are monitored on a daily basis for signs of toxicities which (from mild to extreme) include abnormal grooming behavior, loss or thinning of hair, enlargement of spleen and loss of activity. 0 to 30 micrograms PPMP/per gm of mouse body weight is administered. Effective anti-parasite concentrations of PPMP are predicted to be at ~2 micrograms of PPMP/gm of mouse body weight. Based on preliminary studies, 8-10 micrograms of PPMP per gram of (mouse) body weight have no significant toxicity over 16 days. Compounds and levels found to be non toxic over 30 days will be further tested for their effects on infections of P. yoelii and P. chabaudi.

[4] = test system: P. yoelii and P. chabaudi; assay: Anti-parasite effect in infected mice; type: in vivo, mouse
Protocol: as §3
Effects of PPMP/other lead compounds on non lethal and lethal strains of P. yoelii and P. chabaudi. Both lethal and non lethal strains of P. yoelii have a 24 h cycle. For both strains, parasites can be injected i.p., with an innoculum of 5×10^5 parasites. […]
Mice are injected with the inhibitor on day 1. […] On subsequent days the drugs is delivered once a day and the parasitemia is monitored by tail bleeds. […]

CCCCCCCCCCCCCCCC(=O)N[C@H](CN1CCOCC1)[C@H](O)c1ccccc1 (relative stereo) [PPMP, dl-threo-1-phenyl-2-palmitoylamino-3-morpholino-1-propanol]
effect on sphingomyelin synthase activity (sphingomyelin synthase [1]; 0.05-0.5 μM PPMP): initial, rapid decrease in the sphingomyelin synthase activity
concentration at which the second pool of enzyme is quantitatively inhibited (sphingomyelin synthase [1]; second pool): 100 to 500 µM
concentration at which the sensitive pool of sphingomyelin synthase is completely inhibited (sphingomyelin synthase [1]; sensitive pool): 1 to 5 µM
inhibition of sphingomyelin biosynthesis at 5 μM PPMP [%] (sphingomyelin synthase [2]; hypotonic lysates): 33%
inhibition of sphingomyelin biosynthesis at 5 μM PPMP [%] (sphingomyelin synthase [2]; pellet of lysate (10^4 x G)): 30%
inhibition of sphingomyelin biosynthesis at 5 μM PPMP [%] (sphingomyelin synthase [2]; supernatant of lysate (10^4 x G)): 3%
inhibition at 5 µM (P. falciparum strain FCB): 100%
inhibition of DNA synthesis (DNA synthesis): not inhibitory
TVM morphology in rings formed in the presence of drug ([3]; 240 optical sections through 20 cells): markedly devoid of tubular connections
intraerythrocytic structures at 36 h in continued presence of drug ([3]; 36 h in the life cycle): remain as isolated spots
NOAEL at 384 h (Toxicity in mice): 8 to 10 mg/kg
effective anti-parasite concentration (predicted) [4]: ~ 2 micrograms of PPMP/gm of mouse body weight
